From patent US20230142803A1, “NATURAL KILLER CELLS AND ILC3 CELLS AND USES THEREOF” (Celularity Inc., priority 2015, published 2023)

Columns and labels:
[1] = system: CD34+ cells; assay: Three-stage method with SR-1 or CH223191 in Stage 1 and Stage 2 media; assay type: cell-based; conditions: for effects on fold expansion, cell purity (CD56+CD3−), and cytotoxicity of K562 cells: 10 μM and 1 μM, K562 at 10:1 (E:T)
Method: CD34^+ cells are cultured in the following medium formulations for the indicated number of days, and aliquots of cells are taken for assessment of cell count, cell viability, characterization of natural killer cell differentiation and functional evaluation.
Stage 1 medium: 90% Stem Cell Growth Medium (SCGM) (CellGro®), 10% Human Serum-AB, supplemented with 4.5 U/mL low molecular weight heparin (LMWH), 25 ng/mL recombinant human thrombopoietin (TPO), 25 ng/mL recombinant human Flt3L, 27 ng/mL recombinant human stem cell factor (SCF), 25 ng/mL recombinant human IL-7, 0.05 ng/mL recombinant human IL-6 (500-fold), 0.25 ng/mL recombinant human granulocyte colony-stimulating factor (G-CSF) (50-fold), 0.01 ng/mL recombinant human granulocyte-macrophage colony-stimulating factor (GM-CSF) (500-fold), 0.10% gentamicin, and 1 to 10 μm StemRegenin-1 (SR-1).
Stage 2 medium: 90% SCGM, 10% Human Serum-AB, supplemented with 4.5 U/mL low molecular weight heparin (LMWH), 25 ng/mL recombinant human Flt3L, 27 ng/mL recombinant human SCF, 25 ng/mL recombinant human IL-7, 20 ng/mL recombinant human IL-15, 0.05 ng/mL recombinant human IL-6 (500-fold), 0.25 ng/mL recombinant human G-CSF (50-fold), 0.01 ng/mL recombinant human GM-CSF (500-fold), 0.10% gentamicin, and 1 to 10 μm SR1.
Stage 3 medium: 90% […]™, 10% Human Serum-AB, 0.025 mM 2-mercaptoethanol (55 mM), supplemented with 22 ng/mL recombinant human SCF, 1000 U/mL recombinant human IL-2, 20 ng/mL recombinant human IL-7, 20 ng/mL recombinant human IL-15, 0.05 ng/mL recombinant human IL-6 (500-fold), 0.25 ng/mL recombinant human G-CSF (50-fold), 0.01 ng/mL recombinant human GM-CSF (500-fold), and 0.10% gentamicin.
Stemregenin-1 (SR-1) was evaluated as a component of Stage 1 and Stage 2 media using the three-stage method outlined in Example 1, above, at concentrations of 1 μM, 10 μM, and 30 μM. The same concentrations of CH223191 in the three-stage method were also evaluated.

[2] = system: three-stage NK cells; assay: Varying third medium components, flow cytometry evaluation; assay type: cell-based; conditions: presence of SR1 in the third medium
Excerpt: A flow cytometry panel (Table 7) was utilized for evaluation on days 0, 7, 14, 21, 28, and 35, including cell surface markers CD56, CD3, CD117, CD94, IL1R1, CD11a, CD34, and CD14/CD15 and intracellular markers RORγt, AHR, and perforin.

| SMILES | effects on fold expansion, cell purity (CD56+CD3−), and cytotoxicity of K562 cells [1] | effect on NK (CD11a+) vs ILC3 (CD11a−) cell production [2] | cytotoxicity of NK cells produced ([1]; SR-1 at 10 μM in Stage 1 and Stage 2 media vs 1 μM and 30 μM) |
| --- | --- | --- | --- |
| Cc1ccccc1/N=N/c1ccc(NC(=O)c2ccnn2C)c(C)c1 [CH223191, 1-methyl-N-(2-methyl-4-(2-(2-methylphenyl)diazenyl)phenyl)-1H-pyrazole-5-carboxamide] | Comparable effects |  |  |
| CC(C)n1cnc2c(NCCc3ccc(O)cc3)nc(-c3csc4ccccc34)nc21 [SR-1, 4-(2-(2-(benzo[b]thien-3-yl)-9-isopropyl-9H-purin-6-ylamino)ethyl)phenol] | Comparable effects | favor NK (CD11a+) cell production | higher cytotoxicity than the other two concentrations tested |
